In general, IC50 refers to the concentration that gives 50% inhibition.

Structures are written as SMILES. Where a name gives a salt, the structure may show the parent alone. Read-outs that look alike come from different tables or passages of the source. Where only a bound is given, the exact number is not on record here.

The values below come from patent US10538521B2, “Pyrimidine derivative having antimalarial activity” (CARNA BIOSCIENCES, INC., priority 2016, dated 2020).

Test [1] relates to K1 strain, a drug resistant strain of Plasmodium falciparum. In words: In vitro antimalarial assay (p-LDH, Malstat), K1 strain. The test is classed as cell-based. The settings on record: read-out: Antimalarial activity (IC50 value), Strain K1. Summed up: (§1)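 P. falciparum FCR3 and K1 cultured in human erythrocytes (RPMI 1640, 10% human plasma; 2% hematocrit, 0.5 or 1% parasitaemia) with compound at 12.5 to 0.0001 μM final for 72 h at 37° C (3% O2-4% CO2-93% N2). Growth read as p-LDH activity (Malstat/NBT-PES, A655 nm) after freeze-thaw; IC50 from concentration-response curve.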

Test [2] deals with P. berghei N strain (drug sensitive strain). In words: In vivo antimalarial assay, mouse model infected with rodent malaria. The following applies: Plasmodium berghei, ip, 96 h, read-out: Therapeutical Effect (%) inhibition. On the procedure: In vivo antimalarial activity of the compound of the present invention was determined using a mouse model infected with rodent malaria P. berghei N strain (drug sensitive strain) by slightly modifying the method described in the above publication of Otoguro et al. (2001) and the method reported by Peters et al. (Peters, W., Portus, J. H. and Robinson, B. L.: The chemotherapy of rodent malaria. XXII. The value of drug-resistant strains of P. berghei in Screening for blood schizonticidal activity. Ann. Trop. Med. Parasitol., 69: 155-171, (1975)). The P. berghei N strain was generous gift from Dr. W. Peters (Northwick Park Institute for Medical Research, Middlesex, United Kingdom).
A group of three ICR male mice (Charles River Laboratories Japan, Inc.) weighing 18 to 20 g was used as a test animal. Using protozoa maintained and sub-cultured by in vivo passage, 2×10^6 parasite-infected erythrocytes were pre pared, and the mice were infected therewith by tail vein injection. For the therapeutic test, a 1-day suppressive test was performed. The day of infection was defined as day 0. Two hours after the infection, a solution of the test compound (solvent: 3% DMSO/0.5% methylcellulose400-solution or suspension) was administered intraperitoneally (i.p.) once to 3 times. On day 4, blood smear preparation was prepared by collecting from the tail vein and the ratio of parasite-infected erythrocytes (parasitaemia) was investigated to determine the therapeutic effect (inhibition percentage) based on the infection rate of the group to which the compound was not administered. The significance test was performed by Dunnett's test.

In test [3] the test system is FCR3 strain, a drug sensitive strain of Plasmodium falciparum. In words: In vitro antimalarial assay (p-LDH, Malstat), FCR3 strain. In kind it is cell-based. The settings on record: read-out: Antimalarial activity (IC50 value), Strain FCR3. Summed up: as §1
The mark [4] stands for this setting: P. falciparum K1 (drug resistant), 72 h culture, p-LDH readout.
The mark [5] stands for this setting: 10 mg/kg i.p., administered once, parasitaemia on day 4, ICR mice.
The mark [6] stands for this setting: P. falciparum FCR3 (drug sensitive), 72 h culture, p-LDH readout.
The mark [7] stands for this setting: 10 mg/kg i.p., administered twice (day 0 and 1), parasitaemia on day 4, ICR mice.

As to `Cc1cccc(Nc2nc(Nc3ccn4ccnc4c3)cc(N3CCCCC3)n2)n1` [Example 28, N4-(imidazo[1,2-a]pyridin-7-yl)-N2-(6-methylpyridin-2-yl)-6-(piperidin-1-yl)pyrimidine-2,4-diamine], the IC50 in test [1] (setting [4]) and in test [3] (setting [6]) was less than 100 nM in each case. Further, the inhibition in vivo at 10 mg/kg in test [2] (setting [5]) came out at 51.4%.

For the molecule `Cc1cc(C)nc(Nc2nc(Nc3ccn4ccnc4c3)cc(N3CCCCC3)n2)c1` [Example 32, N2-(4,6-dimethylpyridin-2-yl)-N4-(imidazo[1,2-a]pyridin-7-yl)-6-(piperidin-1-yl)pyrimidine-2,4-diamine], the IC50 in test [1] (setting [4]) and in test [3] (setting [6]) was less than 100 nM throughout. Moreover, the inhibition in vivo at 10 mg/kg in test [2] (setting [5]) came to 47.5%.

For `CCc1ccnc(Nc2nc(Nc3ccn4ccnc4c3)cc(N3CCC(C)(C)C3)n2)c1` [Example 170, 6-(3,3-dimethylpyrrolidin-1-yl)-N2-(4-ethylpyridin-2-yl)-N4-(imidazo[1,2-a]pyridin-7-yl) pyrimidine-2,4-diamine], the IC50 in test [1] (setting [4]) and in test [3] (setting [6]) was less than 100 nM in each case. Also, the inhibition in vivo at 10 mg/kg in test [2] (setting [5]) amounted to 92.9%.

As to `CCc1ccnc(Nc2nc(Nc3ccn4ccnc4c3)cc(N3CCC(OC)CC3)n2)c1` [Example 114, N2-(4-ethylpyridin-2-yl)-N4-(imidazo[1,2-a]pyridin-7-yl)-6-(4-methoxypiperidin-1-yl)pyrimidine-2,4-diamine], the IC50 in test [1] (setting [4]) and in test [3] (setting [6]) was less than 100 nM throughout. For the same molecule, the inhibition in vivo at 10 mg/kg in test [2] (setting [5]) stood at 70.9%.

In the case of `CCc1ccnc(Nc2nc(Nc3ccn4ccnc4c3)cc(N3CCOCC3)n2)c1` [Example 68, N2-(4-ethylpyridin-2-yl)-N4-(imidazo [1,2-a]pyridin-7-yl)-6-morpholinopyrimidine-2,4-diamine], the IC50 in test [1] (setting [4]) and in test [3] (setting [6]) was less than 100 nM each time. Further, in test [2] (setting [5]), the inhibition in vivo at 10 mg/kg was found to be 41.7%.

For the molecule `Cc1ccnc(Nc2nc(Nc3ccn4ccnc4c3)cc(N3CCCCC3)n2)c1` [Example 34, N4-(imidazo[1,2-a]pyridin-7-yl)-N2-(4-methylpyridin-2-yl)-6-(piperidin-1-yl)pyrimidine-2,4-diamine], the IC50 is less than 100 nM in test [1] (setting [4]) and 100 to 1000 nM in test [3] (setting [6]). In addition, the inhibition in vivo at 10 mg/kg in test [2] (setting [5]) was 51.5%.

As to `Cc1cc(C)nc(Nc2nc(Nc3ccn4ccnc4c3)cc(N3CC(C)C(C)C3)n2)c1` (stereo not drawn) [Example 147, N2-(4,6-dimethylpyridin-2-yl)-6-(3,4-dimethylpyrrolidin-1-yl)-N4-(imidazo[1,2-a]pyridin-7-yl)pyrimidine-2,4-diamine formate], the half-maximal inhibitory concentration (IC50) in test [1] (K1, 72 h) was less than 100 nM; in test [3] (FCR3, 72 h), less than 100 nM. In test [2], the inhibition in vivo at 10 mg/kg was 83.4%.

Turning to `CCCCc1cccc(Nc2nc(Nc3ccn4ccnc4c3)cc(N3CCCC3)n2)n1` [Example 165, N2-(6-butylpyridin-2-yl)-N4-(imidazo[1,2-a]pyridin-7-yl)-6-(pyrrolidin-1-yl)pyrimidine-2,4-diamine], the IC50 in test [1] (setting [4]) and in test [3] (setting [6]) was less than 100 nM in each case. In test [2] (setting [7]), the inhibition in vivo at 10 mg/kg amounted to 98%.

`Cc1cc(C)nc(Nc2nc(Nc3ccn4ccnc4c3)cc(N3CCC4(CCCC4)C3)n2)c1` [Example 174, N2-(4,6-dimethylpyridin-2-yl)-N4-(imidazo[1,2-a]pyridin-7-yl)-6-(2-azaspiro[4.4]nonan-2-yl)pyrimidine-2,4-diamine]: the IC50 in test [1] (setting [4]) and in test [3] (setting [6]) was less than 100 nM throughout. The inhibition in vivo at 10 mg/kg in test [2] (setting [7]) was found to be 93.6%.

`CCCCc1cccc(Nc2nc(Nc3ccn4ccnc4c3)cc(N3CCCCC3)n2)n1` [Example 106, N2-(6-butylpyridin-2-yl)-N4-(imidazo[1,2-a]pyridin-7-yl)-6-(piperidin-1-yl)pyrimidine-2,4-diamine]: the IC50 in test [1] (setting [4]) and in test [3] (setting [6]) was less than 100 nM each time. In test [2] (10 mg/kg i.p., administered three times (day 0, 1 and 2), parasitaemia on day 4, ICR mice), the inhibition in vivo at 10 mg/kg turned out to be 87.4%.
